Where two headings read alike, the source gives them in different places.
Tests used:
Type in all cases: cell-based
HIV-1 = test: Inhibition of HIV-1 infectivity (p24 ELISA) in MT-2 cells, laboratory-adapted HIV-1 strains; conditions: for IC50: Human immunodeficiency virus 1, MT2, 96 h, MT-2 cells, p24 ELISA day 4; for Activity against a broad range of HIV-1 laboratory-adapted and primary isolates: including one RT-inhibitor-resistant and one protease-inhibitor-resistant isolate (summary of Table 3)
Procedure: (§1) AZT was used as a positive control in the infectivity assays. In brief, 1×10^4 MT-2 cells (lymphocytes) were infected with HIV-1 at 100 TCID50 (50% tissue culture infective dose, 0.01 MOI [multiplicity of infection]) in 200 μL RPMI 1640 medium containing 10% FBS in the presence or absence of small molecules at graded concentrations overnight. The culture supernatants were then removed and fresh media containing freshly prepared test compounds were added. On the fourth day post-infection, 100 μL of culture supernatants were collected from each well, mixed with equal volume of 5% TRITON X-100® and tested for p24 antigen by ELISA®.

[1] = XTT cytotoxicity assay in MT-2 cells; conditions: human; for CC50 at 4 days: MT-2 cells; for CC50: cell type not given
Procedure: (§2) Briefly, for MT-2 cells, 100 μL of small molecule at graded concentrations was added to an equal volume of cells (5×10^4 cells/ml) in 96-well plates followed by incubation at 37° C. for 4 days, which ran parallel to the neutralization assay in MT-2 (except medium was added instead of virus). In the case of PBMC, 2.5×10^5 cells/mL were used and the cytotoxicity was measured after 7 days. After addition of XTT (PolySciences, Inc.), the soluble intracellular formazan was quantitated calorimetrically at 450 nm 4 hours later with a reference at 620 nm. The CC50 values were calculated.

[2] = XTT cytotoxicity assay in PBMC; conditions: human
Procedure: as §2, with “Cytotoxicity of small molecules in cultures with MT-2 cells and PBMC was measured by the tetrazolium hydroxide XTT (sodium 3′-(1-(phenylamino)-carbonyl)-3,4-tetrazolium-bis(4-methoxy-6-nitro) benzenesulfonic acid hydrate) cytotoxicity assay, as previously described (Jiang et al., 2004). Briefly,” for “Briefly,”

HIV-1 IIIB = test: Antiviral activity (p24) against HIV-1 IIIB in MT-2; conditions: Human immunodeficiency virus 1, subtype B, MT-2, X4, laboratory strain
Procedure: as §1, with “ELISA®. The IC50 values were calculated by the GraphPad Prism software (GraphPad Software®, Inc.) and the values were classified as IC50<10 μM and IC50>10 μM.” for “ELISA®.”
(§3) The molecules in Tables 3 include the calculated IC50 values and use “A1” to denote IC50<10 μM and “B1” to denote IC50>10 μM and “C1” to denote CC50<50 μM and “D1” to denote […].

HIV-1 MN = test: Antiviral activity (p24) against HIV-1 MN in MT-2; conditions: Human immunodeficiency virus 1, subtype B, MT-2, X4, laboratory strain
Procedure: as §1, with “ELISA®. The IC50 values were calculated by the GraphPad Prism software (GraphPad Software®, Inc.) and the values were classified as IC50<10 μM and IC50>10 μM.” for “ELISA®.”
as §3

HIV-1 SF2 = test: Antiviral activity (p24) against HIV-1 SF2 in MT-2; conditions: Human immunodeficiency virus 1; SF2, subtype B, MT-2, R5X4, laboratory strain
Procedure: as §1, with “ELISA®. The IC50 values were calculated by the GraphPad Prism software (GraphPad Software®, Inc.) and the values were classified as IC50<10 μM and IC50>10 μM.” for “ELISA®.”
as §3

HIV-1 RF = test: Antiviral activity (p24) against HIV-1 RF in MT-2; conditions: Human immunodeficiency virus 1, subtype B, MT-2, X4, laboratory strain
Procedure: as §1, with “ELISA®. The IC50 values were calculated by the GraphPad Prism software (GraphPad Software®, Inc.) and the values were classified as IC50<10 μM and IC50>10 μM.” for “ELISA®.”
as §3

HIV-1 BaL = test: Antiviral activity (p24) against HIV-1 BaL in PBMC; conditions: Human immunodeficiency virus 1, subtype B, R5, laboratory strain
Procedure: as §1, with “ELISA®. The IC50 values were calculated by the GraphPad Prism software (GraphPad Software®, Inc.) and the values were classified as IC50<10 μM and IC50>10 μM.” for “ELISA®.”
(§4) Peripheral blood mononuclear cells (PBMCs) were isolated from the blood of healthy donors by standard density gradient centrifugation using Histopaque-1077 (Sigma). The cells were cultured at 37° C. for 2 hours. Nonadherent cells were collected and resuspended at 5×10^6 cells/ml RPMI-1640 medium containing 10% FBS, 5 μg/ml PHA, and 100 U/ml IL-2 (Sigma), followed by incubation at 37° C. for 3 days. The PHA-stimulated cells (5×10^4 cells/well) were infected with primary HIV-1 isolates at 500 TCID50 (0.01 MOI) in the absence or presence of small molecule inhibitor at graded concentrations. Culture media were changed every 3 days and replaced with fresh media containing freshly prepared inhibitor. The supernatants were collected 7 days post-infection and tested for p24 antigen by ELISA. The inhibition of p24 production in PBMC was measured over a range of concentrations and the concentration required to inhibit 50% (IC50) of the p24 production was calculated by the GraphPad Prism software.
as §3

HIV-1 AZT-R = test: Antiviral activity (p24) against RT-resistant isolate AZT-R in MT-2; conditions: Human immunodeficiency virus 1
Procedure: as §1, with “ELISA®. The IC50 values were calculated by the GraphPad Prism software (GraphPad Software®, Inc.) and the values were classified as IC50<10 μM and IC50>10 μM.” for “ELISA®.”
as §3

HIV-1RF/L-323-12-3 = test: Antiviral activity (p24) against protease resistant isolate HIV-1RF/L-323-12-3 in MT-2; conditions: Human immunodeficiency virus 1
Procedure: as §1, with “ELISA®. The IC50 values were calculated by the GraphPad Prism software (GraphPad Software®, Inc.) and the values were classified as IC50<10 μM and IC50>10 μM.” for “ELISA®.”
as §3

HIV-1 92US657 = test: Antiviral activity (p24) against primary isolate 92US657 in PBMC; conditions: Human immunodeficiency virus 1, 92US657, subtype B, R5, primary isolate
Procedure: as §4, §3

HIV-1 93IN101 = test: Antiviral activity (p24) against primary isolate 93IN101 in PBMC; conditions: Human immunodeficiency virus 1, 93IN101, subtype C, R5, primary isolate
Procedure: as §4, §3

HIV-1 93Br020 = test: Antiviral activity (p24) against primary isolate 93Br020 in PBMC; conditions: Human immunodeficiency virus 1, 93Br020, subtype F, R5X4, primary isolate
Procedure: as §4, §3

HIV-1 RU570 = test: Antiviral activity (p24) against primary isolate RU570 in PBMC; conditions: Human immunodeficiency virus 1, RU570, subtype G, R5, primary isolate
Procedure: as §4, §3

HIV-1 BCF02 = test: Antiviral activity (p24) against primary isolate BCF02 in PBMC; conditions: Human immunodeficiency virus 1, BCF02, Group (O), R5, primary isolate
Procedure: as §4, §3

[3] = Table 2, formula II, read-out: CC50
[4] = read-out: IC50 (concentration that provides 50% inhibition of HIV-1 p24), Table 1, formula I
[5] = Table 1, formula I, read-out: CC50 (concentration that causes 50% cytotoxicity)

SMILES | IC50 (HIV-1; [4]) [µM] | CC50 [1, 5] [µM] | also measured
Cc1cc(=O)n2c3ccccc3n(CC(O)CNc3ccc(F)cc3)c2c1C#N (stereo not drawn) [NYAD-S8] |  |  | IC50 (HIV-1; Table 2, formula II): > 10 µM; Activity against a broad range of HIV-1 laboratory-adapted and primary isolates (HIV-1): consistently potent activity; CC50 at 4 days [1]: > 50 µM; CC50 [1, 3]: > 10 µM; CC50 at 7 days [2]: > 50 µM; IC50 (HIV-1 IIIB): > 10 µM; IC50 (HIV-1 MN): < 10 µM; IC50 (HIV-1 SF2): < 10 µM; IC50 (HIV-1 RF): < 10 µM; IC50 (HIV-1 BaL): < 10 µM; IC50 (HIV-1 AZT-R): < 10 µM; IC50 (HIV-1RF/L-323-12-3): < 10 µM; IC50 (HIV-1 92US657): < 10 µM; IC50 (HIV-1 93IN101): < 10 µM; IC50 (HIV-1 93Br020): < 10 µM; IC50 (HIV-1 RU570): < 10 µM; IC50 (HIV-1 BCF02): > 10 µM
Cc1cc(=O)n2c3ccccc3n(CC(O)CN3CCN(C(c4ccccc4)c4ccccc4)CC3)c2c1C#N (stereo not drawn) [NYAD-S17] |  |  | IC50 (HIV-1; Table 2, formula II): < 10 µM; Activity against a broad range of HIV-1 laboratory-adapted and primary isolates (HIV-1): consistently potent activity; CC50 at 4 days [1]: < 50 µM; CC50 [1, 3]: > 10 µM; CC50 at 7 days [2]: < 50 µM; IC50 (HIV-1 IIIB): < 10 µM; IC50 (HIV-1 MN): < 10 µM; IC50 (HIV-1 SF2): < 10 µM; IC50 (HIV-1 RF): < 10 µM; IC50 (HIV-1 BaL): < 10 µM; IC50 (HIV-1 AZT-R): < 10 µM; IC50 (HIV-1 92US657): < 10 µM; IC50 (HIV-1 93IN101): < 10 µM; IC50 (HIV-1 RU570): < 10 µM; IC50 (HIV-1 BCF02): < 10 µM
Cc1ccc2cc(CN(Cc3ccco3)C(=O)c3cccc(F)c3)c(=O)[nH]c2c1 [NYAD-S81] | < 10 | > 10 | 
Cc1cc(C)c2[nH]c(=O)c(CN(Cc3ccco3)C(=O)c3ccc(Br)cc3)cc2c1 [NYAD-S82] | > 10 | > 10 | 
CCOc1ccc(C(=O)N(Cc2ccco2)Cc2cc3cc(OC)c(OC)cc3[nH]c2=O)cc1 [NYAD-S84] | > 10 | > 10 | 
Cc1ccc(C)c2[nH]c(=O)c(CN(Cc3ccco3)C(=O)c3ccc(Br)cc3)cc12 [NYAD-S85] | > 10 | > 10 | 
CCOc1ccc2[nH]c(=O)c(CN(Cc3ccco3)C(=O)c3ccccc3Cl)cc2c1 [NYAD-S89] | > 10 | > 10 | 
Cc1ccc2[nH]c(=O)c(CN(Cc3ccco3)C(=O)c3ccccc3Br)cc2c1 [NYAD-S90] | > 10 | > 10 | 
Cc1ccc2[nH]c(=O)c(CN(Cc3ccco3)C(=O)c3ccc(C(C)(C)C)cc3)cc2c1 [NYAD-S91] | > 10 | > 10 | 
Cc1ccc(C(=O)N(Cc2ccco2)Cc2cc3ccc(C)cc3[nH]c2=O)cc1 [NYAD-S92] | > 10 | > 10 | 
CCOc1ccc2[nH]c(=O)c(CN(Cc3ccco3)C(=O)c3ccc(Br)cc3)cc2c1 [NYAD-S94] | > 10 | > 10 | 
CCOc1ccc2[nH]c(=O)c(CN(Cc3ccc(F)cc3)C(=O)c3ccco3)cc2c1 [NYAD-S95] | > 10 | > 10 | 
Cc1ccc2[nH]c(=O)c(CN(Cc3ccc(F)cc3)C(=O)c3ccco3)cc2c1 [NYAD-S96] | > 10 | > 10 | 
CCOc1ccc2[nH]c(=O)c(CN(Cc3ccco3)C(=O)c3cccc(F)c3)cc2c1 [NYAD-S97] | > 10 | < 10 | 
Cc1ccc2[nH]c(=O)c(CN(Cc3ccc(Cl)cc3)C(=O)c3ccccc3)cc2c1 [NYAD-S98] | > 10 | > 10 | 
CCc1ccc2[nH]c(=O)c(CN(Cc3ccco3)C(=O)c3ccccc3)cc2c1 [NYAD-S99] | > 10 | > 10 | 

SMILES | IC50 (HIV-1; [4]) [µM] | CC50 [1, 5] [µM] | also measured
COc1ccc2[nH]c(=O)c(CN(Cc3ccco3)C(=O)c3ccc(C)cc3)cc2c1 [NYAD-S100] | < 10 | > 10 | 
Cc1cc(C)c2[nH]c(=O)c(CN(Cc3ccco3)C(=O)c3ccco3)cc2c1 [NYAD-S101] | > 10 | > 10 | 
CCc1ccc2[nH]c(=O)c(CN(Cc3cccs3)C(=O)c3ccco3)cc2c1 [NYAD-S102] | > 10 | > 10 | 
Cc1cc(C)c2[nH]c(=O)c(CN(Cc3ccco3)C(=O)c3ccc(F)cc3)cc2c1 [NYAD-S103] | > 10 | > 10 | 
Cc1cc(C)c2cc(CN(Cc3ccco3)C(=O)C3CCCCC3)c(=O)[nH]c2c1 [NYAD-S104] | > 10 | > 10 | 
COc1ccc2cc(CN(Cc3ccco3)C(=O)c3ccccc3)c(=O)[nH]c2c1 [NYAD-S105] | > 10 | > 10 | 
CCOc1ccc2[nH]c(=O)c(CN(Cc3ccco3)C(=O)c3ccco3)cc2c1 [NYAD-S106] | > 10 | > 10 | 
Cc1cc(C)c2[nH]c(=O)c(CN(Cc3ccco3)C(=O)c3ccncc3)cc2c1 [NYAD-S107] | > 10 | > 10 | 
CCOc1ccc2[nH]c(=O)c(CN(Cc3ccco3)C(=O)c3ccc(C(C)(C)C)cc3)cc2c1 [NYAD-S108] | > 10 | > 10 | 
CCOc1ccc2[nH]c(=O)c(CN(Cc3ccco3)C(=O)c3cc(OC)c(OC)c(OC)c3)cc2c1 [NYAD-S109] | > 10 | > 10 | 
CCc1ccc2[nH]c(=O)c(CN(Cc3ccco3)C(=O)c3ccc(C(C)(C)C)cc3)cc2c1 [NYAD-S110] | > 10 | > 10 | 
Cc1cc(C)c2cc(CN(Cc3ccco3)C(=O)c3ccccc3)c(=O)[nH]c2c1 [NYAD-S111] | > 10 | > 10 | 
Cc1cccc2cc(CN(Cc3ccco3)C(=O)c3cccc(F)c3)c(=O)[nH]c12 [NYAD-S118] | < 10 | > 10 | 
Cc1ccc(CN(Cc2cc3cc(C)ccc3[nH]c2=O)C(=O)c2ccco2)cc1 [NYAD-S121] | < 10 | > 10 | 
Cc1ccc(C(=O)N(Cc2ccco2)Cc2cc3cccc(C)c3[nH]c2=O)cc1 [NYAD-S122] | < 10 | < 10 | 
